Measurements: patent EP0338042B1, “COMPOSITION AND METHOD FOR TREATING HEPATITIS VIRUS INFECTIONS USING 1-(2'-DEOXY-2'-FLUORO-BETA-D-ARABINOFURANOSYL)-5-ETHYLURACIL” (priority 1987, dated 1989)
“And” between values parts separate entries of the source, which are not always exact repeats. Equal entries are not always repeated. Where two headings read alike, the source gives them in different places. Marks after values point to notes of the source that are not given here.

Key:
HSV-2 (STRAIN G) = details: cited from earlier work; for MDD: calculated on day 21; for %WT GAIN ON DAY 7 / %WT GAIN ON DAY 14 / %WT GAIN ON DAY 21 / %WT GAIN ON DAY 30: compared to day 1
HL-60 CELLS MIT[…] = target: T1, HL-60 CELLS MIT[…] (Homo sapiens, UniProt O00142); assay: Phosphorylation by thymidine kinase relative to thymidine; assay type: biochemical; details: thymidine at 400 µM
T1 construct: cytosol and mitochondrial TK's derived from the HL-60 human cell line; endogenous in cells; host or cells: HL-60
T1 sequence (O00142 34-265): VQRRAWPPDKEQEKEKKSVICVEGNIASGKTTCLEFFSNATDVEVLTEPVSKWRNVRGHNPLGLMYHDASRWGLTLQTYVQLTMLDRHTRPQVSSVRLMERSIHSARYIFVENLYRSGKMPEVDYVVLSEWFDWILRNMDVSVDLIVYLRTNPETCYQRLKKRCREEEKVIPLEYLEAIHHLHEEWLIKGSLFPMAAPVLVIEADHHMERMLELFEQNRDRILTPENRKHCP
Text: (§1) It is generally accepted that the selective anti-herpes activity of 2′-fluoro-arabinosylpyrimidine nucleosides is associated in large measure with their ability to be recognized as good substrates for HSV-specified thymidine kinase (TK), but not by the host TK (14, 15). […] By contrast, FEAU is a very poor substrate for the host HL-60 derived TKs (13). […] Their data also indicate that, in uninfected Vero cells, FEAU would be phosphorylated at a very low rate in the presence of thymidine.

HSV-2 (STRAIN 333) TK = HSV-2 (STRAIN 333) TK (Human herpesvirus 2, UniProt P04407); assay: as above; assay type: biochemical; details: thymidine at 400 µM
Text: as §1

HSV-1 (STRAIN KOS) TK = HSV-1 (STRAIN KOS) TK (Human herpesvirus 1, UniProt P17402); assay: as above; assay type: biochemical; details: thymidine at 400 µM
Text: as §1

[1] = FEAU 10 MG/KG/DAY, single surviving animal only

Chain of HSV-2 (STRAIN 333) TK (P04407 whole entry): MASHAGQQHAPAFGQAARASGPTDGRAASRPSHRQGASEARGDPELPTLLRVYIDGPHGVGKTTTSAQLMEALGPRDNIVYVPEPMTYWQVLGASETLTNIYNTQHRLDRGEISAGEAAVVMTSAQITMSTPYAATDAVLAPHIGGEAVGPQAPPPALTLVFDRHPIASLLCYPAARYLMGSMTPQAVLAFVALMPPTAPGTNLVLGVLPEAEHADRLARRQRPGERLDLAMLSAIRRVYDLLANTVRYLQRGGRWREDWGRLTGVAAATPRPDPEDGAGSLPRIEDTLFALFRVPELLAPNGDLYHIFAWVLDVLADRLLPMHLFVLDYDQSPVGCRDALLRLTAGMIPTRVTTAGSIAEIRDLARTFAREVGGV
Chain of HSV-1 (STRAIN KOS) TK (P17402 whole entry, looked up): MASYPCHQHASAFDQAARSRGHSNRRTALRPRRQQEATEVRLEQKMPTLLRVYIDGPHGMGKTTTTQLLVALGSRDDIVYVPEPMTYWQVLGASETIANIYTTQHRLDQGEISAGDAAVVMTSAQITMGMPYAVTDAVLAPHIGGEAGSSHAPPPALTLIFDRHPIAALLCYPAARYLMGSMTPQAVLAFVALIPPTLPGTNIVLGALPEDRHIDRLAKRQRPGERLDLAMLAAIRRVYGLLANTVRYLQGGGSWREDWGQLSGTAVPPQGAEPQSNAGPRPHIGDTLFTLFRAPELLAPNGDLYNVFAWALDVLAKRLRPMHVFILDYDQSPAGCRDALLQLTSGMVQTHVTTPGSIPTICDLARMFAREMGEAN

Compound: CCc1cn([C@@H]2O[C@H](CO)[C@@H](O)[C@@H]2F)c(=O)[nH]c1=O [FEAU, 1-(2'-deoxy-2'-fluoro-beta-D-arabino-furanosyl)-5-ethyl-uracil]
- toxicity (Toxicity in dogs; 50 mg/kg/day x 10, preliminary studies): moderate toxicity
- lethal dose (Toxicity in dogs; FMAU i.v. x 5, FEAU x 10 (preliminary)): 100 mg/kg/day
- MDD (HSV-2 (STRAIN G); FEAU 10 MG/KG/DAY, twice a day for 4 days from 5 hr after inoculation): 9.4
- % SURVIVORS (HSV-2 (STRAIN G); FEAU 10 MG/KG/DAY, twice a day for 4 days): 8%
- %WT GAIN ON DAY 7 (HSV-2 (STRAIN G); FEAU 10 MG/KG/DAY): -7%
- %WT GAIN ON DAY 14 (HSV-2 (STRAIN G); [1]): -13^+ %
- %WT GAIN ON DAY 21 (HSV-2 (STRAIN G); [1]): 31^+ %
- %WT GAIN ON DAY 30 (HSV-2 (STRAIN G); [1]): 36^+ %
- MDD (HSV-2 (STRAIN G); FEAU 50 MG/KG/DAY, twice a day for 4 days from 5 hr after inoculation): 11.8
- % SURVIVORS (HSV-2 (STRAIN G); FEAU 50 MG/KG/DAY, twice a day for 4 days): 25%
- %WT GAIN ON DAY 7 (HSV-2 (STRAIN G); FEAU 50 MG/KG/DAY): 3%
- %WT GAIN ON DAY 14 (HSV-2 (STRAIN G); FEAU 50 MG/KG/DAY): -10%
- %WT GAIN ON DAY 21 (HSV-2 (STRAIN G); FEAU 50 MG/KG/DAY): 16%
- %WT GAIN ON DAY 30 (HSV-2 (STRAIN G); FEAU 50 MG/KG/DAY): 25%
- MDD (HSV-2 (STRAIN G); FEAU 100 MG/KG/DAY, twice a day for 4 days from 5 hr after inoculation): 11.0
- % SURVIVORS (HSV-2 (STRAIN G); FEAU 100 MG/KG/DAY, twice a day for 4 days): 72%
- %WT GAIN ON DAY 7 (HSV-2 (STRAIN G); FEAU 100 MG/KG/DAY): 2%
- %WT GAIN ON DAY 14 (HSV-2 (STRAIN G); FEAU 100 MG/KG/DAY): 7%
- %WT GAIN ON DAY 21 (HSV-2 (STRAIN G); FEAU 100 MG/KG/DAY): 13%
- %WT GAIN ON DAY 30 (HSV-2 (STRAIN G); FEAU 100 MG/KG/DAY): 13%
- MDD (HSV-2 (STRAIN G); FEAU 200 MG/KG/DAY, twice a day for 4 days, parentheses: death of a single animal): (14)^#
- % SURVIVORS (HSV-2 (STRAIN G); FEAU 200 MG/KG/DAY, twice a day for 4 days): 93%
- %WT GAIN ON DAY 7 (HSV-2 (STRAIN G); FEAU 200 MG/KG/DAY): 0%
- %WT GAIN ON DAY 14 (HSV-2 (STRAIN G); FEAU 200 MG/KG/DAY): 1%
- %WT GAIN ON DAY 21 (HSV-2 (STRAIN G); FEAU 200 MG/KG/DAY): 9%
- %WT GAIN ON DAY 30 (HSV-2 (STRAIN G); FEAU 200 MG/KG/DAY): 13%
- toxicity (HSV-2 (STRAIN G); HSV-2 infected mice, doses of 100-200 mg/kg/day): no toxicity was observed
- PERCENTAGE RATES OF PHOSPHORYLATION (RELATIVE TO THYMIDINE), HL-60 CELLS MITOCHONDRIAL TK (HL-60 CELLS MIT[…]): 219.0%
- PERCENTAGE RATES OF PHOSPHORYLATION (RELATIVE TO THYMIDINE), HSV-2 (STRAIN 333) TK (HSV-2 (STRAIN 333) TK): 203.2% and 146.6%
- PERCENTAGE RATES OF PHOSPHORYLATION (RELATIVE TO THYMIDINE), HSV-1 (STRAIN KOS) TK (HSV-1 (STRAIN KOS) TK): 82.7% and 42.0%
